{"source": "patent US20240082181A1", "about": "“Method for Treating Blood Cancers” (Lantern Pharma Inc., priority 2021, published 2024)", "format_in_all_cases": "cell-based", "key": {"[1]": {"test_system": "AML193", "assay": "Cell viability, Promega Celltiter Fluor (72 h)", "conditions": "Homo sapiens; AML193, Acute Myeloid Leukemia, assay duration 72 hours; read-out: LP-284 IC50", "procedure": "(§1) The sensitivity and selectivity of Compound 1 (with positive optical chirality) was assessed using a panel of human blood cell lines. The cell lines used in this Example are shown below and plotted in FIG. 1. The cells were inoculated into 96 well plates at various numbers of cells/well depending on the doubling time of the cell line for 24 hours. Then these cells were treated by Compound 1 at 5˜8 different doses and DMSO vehicle controls. After another 48 or 72 hour incubation, the number viable cells/wells were measured by the sulforhodamine B (SRB) assay (48 h) or the Promega Celltiter Fluor Cell Viability (72 h). IC50 values were then calculated based on normalized cell counts at different Compound 1 doses. Anti-proliferative activity was determined by cell viability measurements."}, "[2]": {"test_system": "CA46", "assay": "Cell viability, Promega Celltiter Fluor (72 h)", "conditions": "Homo sapiens; CA46, Burkitt's Lymphoma, assay duration 72 hours; read-out: LP-284 IC50", "procedure": "as §1"}, "[3]": {"test_system": "JEKO1", "assay": "Cell viability, Promega Celltiter Fluor (72 h)", "conditions": "Homo sapiens, JeKo-1; JEKO1, Mantle Cell Lymphoma, assay duration 72 hours; read-out: LP-284 IC50", "procedure": "as §1"}, "[4]": {"test_system": "JVM2", "assay": "Cell viability, Promega Celltiter Fluor (72 h)", "conditions": "Homo sapiens, JVM-2; JVM2, Mantle Cell Lymphoma, assay duration 72 hours; read-out: LP-284 IC50", "procedure": "as §1"}, "[5]": {"test_system": "K562R", "assay": "Cell viability, Promega Celltiter Fluor (72 h)", "conditions": "Homo sapiens, K-562R, Chronic Myeloid Leukemia, assay duration 72 hours, read-out: LP-284 IC50", "procedure": "as §1"}, "[6]": {"test_system": "K562", "assay": "Cell viability, Promega Celltiter Fluor (72 h)", "conditions": "Homo sapiens; K562, Chronic Myeloid Leukemia, assay duration 72 hours; read-out: LP-284 IC50", "procedure": "as §1"}, "[7]": {"test_system": "KU812", "assay": "Cell viability, Promega Celltiter Fluor (72 h)", "conditions": "Homo sapiens; KU812, Chronic Myeloid Leukemia, assay duration 72 hours; read-out: LP-284 IC50", "procedure": "as §1"}, "[8]": {"test_system": "MAVER1", "assay": "Cell viability, Promega Celltiter Fluor (72 h)", "conditions": "Homo sapiens; MAVER1, Mantle Cell Lymphoma, assay duration 72 hours; read-out: LP-284 IC50", "procedure": "as §1"}, "[9]": {"test_system": "MINO", "assay": "Cell viability, Promega Celltiter Fluor (72 h)", "conditions": "Homo sapiens, Mantle Cell Lymphoma, assay duration 72 hours, read-out: LP-284 IC50", "procedure": "as §1"}, "[10]": {"test_system": "NCIH929", "assay": "Cell viability, Promega Celltiter Fluor (72 h)", "conditions": "Homo sapiens, NCI-H929; NCIH929, Multiple Myeloma, assay duration 72 hours; read-out: LP-284 IC50", "procedure": "as §1"}, "[11]": {"test_system": "REC1", "assay": "Cell viability, Promega Celltiter Fluor (72 h)", "conditions": "Homo sapiens; REC1, Mantle Cell Lymphoma, assay duration 72 hours; read-out: LP-284 IC50", "procedure": "as §1"}, "[12]": {"test_system": "REH", "assay": "Cell viability, Promega Celltiter Fluor (72 h)", "conditions": "Homo sapiens, Acute Lymphoblastic Leukemia, assay duration 72 hours, read-out: LP-284 IC50", "procedure": "as §1"}, "[13]": {"test_system": "SUDHL6", "assay": "Cell viability, Promega Celltiter Fluor (72 h)", "conditions": "Homo sapiens, SU-DHL-6; SUDHL6, Double-Hit Lymphoma, assay duration 72 hours; read-out: LP-284 IC50", "procedure": "as §1"}, "[14]": {"test_system": "SUPB15", "assay": "Cell viability, Promega Celltiter Fluor (72 h)", "conditions": "Homo sapiens, SUP-B15; SUPB15, Acute Lymphoblastic Leukemia, assay duration 72 hours; read-out: LP-284 IC50", "procedure": "as §1"}, "[15]": {"test_system": "THP1", "assay": "Cell viability, Promega Celltiter Fluor (72 h)", "conditions": "Homo sapiens, THP-1; THP1, Acute Myeloid Leukemia, assay duration 72 hours; read-out: LP-284 IC50", "procedure": "as §1"}, "[16]": {"test_system": "U937", "assay": "Cell viability, Promega Celltiter Fluor (72 h)", "conditions": "Homo sapiens, U-937; U937, Acute Myeloid Leukemia, assay duration 72 hours; read-out: LP-284 IC50", "procedure": "as §1"}, "[17]": {"test_system": "Z138", "assay": "Cell viability, Promega Celltiter Fluor (72 h)", "conditions": "Homo sapiens, Z-138; Z138, Mantle Cell Lymphoma, assay duration 72 hours; read-out: LP-284 IC50", "procedure": "as §1"}, "[18]": {"test_system": "CCRFCEM", "assay": "Cell viability, sulforhodamine B (SRB) assay (48 h)", "conditions": "Homo sapiens, CCRF-CEM, Acute Lymphoblastic Leukemia, assay duration 48 hours, read-out: LP-284 IC50", "procedure": "as §1"}, "[19]": {"test_system": "HL60TB", "assay": "Cell viability, sulforhodamine B (SRB) assay (48 h)", "conditions": "Homo sapiens, HL-60, Acute Myeloid Leukemia, assay duration 48 hours, read-out: LP-284 IC50", "procedure": "as §1"}, "[20]": {"test_system": "MOLT4", "assay": "Cell viability, sulforhodamine B (SRB) assay (48 h)", "conditions": "Homo sapiens, MOLT-4; MOLT4, Acute Lymphoblastic Leukemia, assay duration 48 hours; read-out: LP-284 IC50", "procedure": "as §1"}, "[21]": {"test_system": "RPMI8226", "assay": "Cell viability, sulforhodamine B (SRB) assay (48 h)", "conditions": "Homo sapiens, RPMI-8226; RPMI8226, Multiple Myeloma, assay duration 48 hours; read-out: LP-284 IC50", "procedure": "as §1"}, "[22]": {"test_system": "SR", "assay": "Cell viability, sulforhodamine B (SRB) assay (48 h)", "conditions": "Homo sapiens, Anaplastic large cell lymphoma, assay duration 48 hours, read-out: LP-284 IC50", "procedure": "as §1"}}}
{"smiles": "CC1=C(CN(O)C(N)=O)C2=C(C)C3(CC3)[C@@](C)(O)C(=O)C2=C1", "note": "[LP-284, hydroxyureamethyl acylfulvene]", "values": [{"measurement": "IC50", "setting": "[1]", "result": 1800, "unit": "nM"}, {"measurement": "IC50", "setting": "[2]", "result": 431, "unit": "nM"}, {"measurement": "IC50", "setting": "[3]", "result": 263, "unit": "nM"}, {"measurement": "IC50", "setting": "[4]", "result": 343, "unit": "nM"}, {"measurement": "IC50", "setting": "[5]", "result": 295, "unit": "nM"}, {"measurement": "IC50", "setting": "[6]", "result": 298, "unit": "nM"}, {"measurement": "IC50", "setting": "[7]", "result": 488, "unit": "nM"}, {"measurement": "IC50", "setting": "[8]", "result": 193, "unit": "nM"}, {"measurement": "IC50", "setting": "[9]", "result": 88, "unit": "nM"}, {"measurement": "IC50", "setting": "[10]", "result": 334, "unit": "nM"}, {"measurement": "IC50", "setting": "[11]", "result": 794, "unit": "nM"}, {"measurement": "IC50", "setting": "[12]", "result": 114, "unit": "nM"}, {"measurement": "IC50", "setting": "[13]", "result": 449, "unit": "nM"}, {"measurement": "IC50", "setting": "[14]", "result": 588, "unit": "nM"}, {"measurement": "IC50", "setting": "[15]", "result": 1500, "unit": "nM"}, {"measurement": "IC50", "setting": "[16]", "result": 660, "unit": "nM"}, {"measurement": "IC50", "setting": "[17]", "result": 370, "unit": "nM"}, {"measurement": "IC50", "setting": "[18]", "result": 2220, "unit": "nM"}, {"measurement": "IC50", "setting": "[19]", "result": 952, "unit": "nM"}, {"measurement": "IC50", "setting": "[20]", "result": 9020, "unit": "nM"}, {"measurement": "IC50", "setting": "[21]", "result": 348, "unit": "nM"}, {"measurement": "IC50", "setting": "[22]", "result": 896, "unit": "nM"}]}
